Measurements reported in PMC12085399, “Quantitative in vitro-to-in vivo extrapolation of human adrenergic and trace amine-associated receptor 1 potencies of pre-workout supplement ingredients using physiologically based kinetic modelling-based reverse dosimetry” (Archives of Toxicology, 2025).

Assays:
in vitro = settings: human; for Papp B→A at 60 min, 10 µM / efflux ratio at 60 min, 10 µM: Caco-2, pH 7.4; for recovery at 60 min, 10 µM: after 60 min, mean ± SD
Procedure: (§1) Caco-2 cells (ATCC, Manassas, VA, USA; passage 30–44) were cultured in DMEM (Gibco, New York, USA) containing 4.5 g/L d-glucose, 4 mM L-glutamine and supplemented with 10% FBS (Gibco, Grand Island, NY, USA), 1% minimal essential medium non-essential amino acids (Gibco, Paisley, UK), 100 units/mL penicillin and 100 µg/mL streptomycin (Gibco, Grand Island, NY, USA). Cells were seeded at a density of 4.0 × 10^4 cells/cm^2 on polyester transwell insert membranes (12 mm insert, 0.4 µm pore size; Corning incorporated, Kennebunk, ME, USA). Cells were maintained in a humidified incubator with 5% CO2 at 37 °C for 21 or 22 days in 0.5 mL and 1.5 mL medium in the apical and basolateral compartments, respectively. The medium was refreshed every two or three days and always one day before the permeability assay.
(§2) On the day of the experiment, cells were washed twice with HBSS without phenol red (pH 7.4; Sigma-Aldrich, Steinheim, Germany) supplemented with 0.35 g/L sodium bicarbonate and 25 mM HEPES and they were equilibrated in this supplemented HBSS for 15 min in a humidified incubator with 5% CO2 at 37 °C. […] These stocks were diluted to a final concentration of 10 µM in pre-warmed supplemented HBSS (final DMSO level = 0.1%). After 15 min, the transepithelial electrical resistance (TEER) was measured with an Epithelial Voltohmmeter (World Precision Instruments, Sarasota, USA). Compound transport was studied in two directions: from the apical to the basolateral compartment (A-B) and from the basolateral to the apical compartment (B-A). For A-B experiments, 450 µL of the compound (10 µM) was added to the apical side and 1200 µL supplemented HBSS was added to the basolateral side. A sample of 50 µL was removed immediately from the apical compartment at time point zero. After 15 and 30 min, samples were taken from the basolateral compartment. Cells were kept in the incubator during the experiment. After 60 min, medium from both compartments was sampled, cells were washed twice with supplemented HBSS and were maintained in the incubator. After 15 min, the TEER was measured again to check for epithelial barrier damage due to compound exposure. After this, cells were lysed in RIPA buffer (Thermo Scientific, Rockford, IL, USA). For B-A experiments, 400 µL of supplemented HBSS was added to the apical side and 1250 µL of the compound (10 µM) was added to the basolateral side. A sample of 50 µL was removed immediately from the basolateral compartment at time point zero. After 15 and 30 min, samples were taken from the apical compartment. After 60 min, samples were taken similarly as in A-B experiments. The sampled medium and cell lysates were stored at −20 °C till the day of the liquid chromatography–mass spectrometry (LC–MS/MS) analysis. All experiments were run in duplicate. The compounds were quantified with LC–MS/MS as described in Sect. "LC–MS/MS analysis".
(§3) Before chemical analysis, cell lysates were two times diluted in ice-cold methanol and centrifuged at 15,000 rpm at 4 °C. The supernatant was then injected into the LC–MS/MS system. Sampled buffer from donor compartments was diluted 40 times in buffer and samples from the receiver compartment were analysed undiluted. Standards were prepared in the same assay buffer to quantify the amount of compound in medium samples. For quantification of compounds in cell lysates, standards were prepared in a mixture of 50% RIPA buffer and 50% methanol.
(§4) All data are presented as mean ± SD.
(§5) For the < Tsi > a value of 3.32 h was used (Grandoni et al. [2019]).

Caco-2 cells = assay: in vitro; settings: scaled from corrected Caco-2 Papp A-B, human
Procedure: as §1, §2, §3, §4, §5

ADRβ2 = assay: PBK modelling-based reverse dosimetry of in vitro EC50 to ED50, ADRβ2; settings: predicted human oral ED50 from in vitro EC50 (Pinckaers et al. [2024]) and modelled Cmax plasma venous
Description: (§6) The in vitro effect concentrations (EC50), for activation of the α1A, α1B, α1D, α2A, α2B, β1 and β2 ADR activation and the activation of TAAR1, were obtained from our previous study (Pinckaers et al. [2024]).

ADRα1A = assay: PBK modelling-based reverse dosimetry of in vitro EC50 to ED50, ADRα1A; settings: predicted human oral ED50 from in vitro EC50 (Pinckaers et al. [2024]) and modelled Cmax plasma venous
Description: as §6

ADRβ1 = assay: PBK modelling-based reverse dosimetry of in vitro EC50 to ED50, ADRβ1; set-up: species or system human; settings: for ADRβ1 ED50: predicted human oral ED50 from in vitro EC50 (Pinckaers et al. [2024]) and modelled Cmax plasma venous
ADRα1D = assay: PBK modelling-based reverse dosimetry of in vitro EC50 to ED50, ADRα1D; settings: predicted human oral ED50 from in vitro EC50 (Pinckaers et al. [2024]) and modelled Cmax plasma venous
Description: as §6

ADRα1B = assay: PBK modelling-based reverse dosimetry of in vitro EC50 to ED50, ADRα1B; settings: predicted human oral ED50 from in vitro EC50 (Pinckaers et al. [2024]) and modelled Cmax plasma venous
Description: as §6

[1] = Caco-2, pH 7.4, Papp A-B corrected, corrected for the difference between Papp A-B of metoprolol in this study and in literature
[2] = Caco-2, pH 7.4, Papp A-B, Caco-2, apical to basolateral, 10 µM, HBSS pH 7.4, mean ± SD, duplicate
[3] = Caco-2, pH 7.4, Recovery (A-B), Caco-2, A-B experiments
[4] = Caco-2, pH 7.4, Recovery (B-A), Caco-2, B-A experiments

SMILES	Papp B→A at 60 min, 10 µM (in vitro) [×10⁻⁶ cm/s]	Papp A→B at 60 min, 10 µM (in vitro; [1]) [×10⁻⁶ cm/s]	Papp A→B at 60 min, 10 µM (in vitro; [2]) [×10⁻⁶ cm/s]	recovery at 60 min, 10 µM (in vitro; [3]) [%]	recovery at 60 min, 10 µM (in vitro; [4]) [%]	fa (fraction absorbed) (Caco-2 cells)	ka (absorption rate constant) (Caco-2 cells) [h⁻¹]	ADRβ2 ED50 (ADRβ2)	ADRα1A ED50 (ADRα1A)	predicted equivalent oral dose, times lower than the dose of higenamine (ADRβ1; ADRβ1, dose needed to reach the internal effect concentration) [times]	ADRα1D ED50 (ADRα1D)	ADRα1B ED50 (ADRα1B)	efflux ratio at 60 min, 10 µM (in vitro)	ADRβ1 ED50 (ADRβ1)
CC(C)NCC(O)c1ccc(O)cc1 (stereo not shown) [Isopropyloctopamine, isopropyloctopamine]	0.652 ± 0.0444	2.56	0.703 ± 0.041	79.8 ± 2.19	76.5 ± 1.27	0.994	0.818	– (compounds with a dash (-) did not activate the receptors in vitro at concentrations ≤ 300 µM)	– (compounds with a dash (-) did not activate the receptors in vitro at concentrations ≤ 300 µM)	2.5	– (compounds with a dash (-) did not activate the receptors in vitro at concentrations ≤ 300 µM)	– (compounds with a dash (-) did not activate the receptors in vitro at concentrations ≤ 300 µM)		
CN(C)CCc1ccccc1 [Dimethylphenethylamine, N,N-dimethylphenethylamine]	13.1 ± 0.51	53.5	14.7 ± 0.244	76.7 ± 0.06	93.3 ± 4.81	1.00	3.66	– (compounds with a dash (-) did not activate the receptors in vitro at concentrations ≤ 300 µM)	– (compounds with a dash (-) did not activate the receptors in vitro at concentrations ≤ 300 µM)		5.60 mg/kg bw	4.07 mg/kg bw	0.891	– (compounds with a dash (-) did not activate the receptors in vitro at concentrations ≤ 300 µM)
CNCC(O)c1ccccc1 (stereo not shown) [Halostachine, halostachine]	10.3 ± 0.649	47.8	13.1 ± 0.144	84 ± 3.18	93.9 ± 0.0289	1.00	3.46	– (compounds with a dash (-) did not activate the receptors in vitro at concentrations ≤ 300 µM)	10.5 mg/kg bw		2.52 mg/kg bw	1.32 mg/kg bw	0.786	– (compounds with a dash (-) did not activate the receptors in vitro at concentrations ≤ 300 µM)
Oc1ccc(CC2NCCc3cc(O)c(O)cc32)cc1 (stereo not shown) [Higenamine, higenamine]	0.0612 ± 0.00186	0.223	0.061 ± 0.0351	104 ± 0.35	105 ± 1.06	0.860	0.246	2.92 mg/kg bw	– (compounds with a dash (-) did not activate the receptors in vitro at concentrations ≤ 300 µM)		– (compounds with a dash (-) did not activate the receptors in vitro at concentrations ≤ 300 µM)	– (compounds with a dash (-) did not activate the receptors in vitro at concentrations ≤ 300 µM)	1	0.211 mg/kg bw
CC(CN)c1ccccc1 (stereo not drawn) [β-Methylphenethylamine, β-methylphenethylamine]	12.1 ± 2.02	57.6	15.8 ± 1.47	80.9 ± 3.27	89.3 ± 4.46	1.00	3.79	– (compounds with a dash (-) did not activate the receptors in vitro at concentrations ≤ 300 µM)	– (compounds with a dash (-) did not activate the receptors in vitro at concentrations ≤ 300 µM)		– (compounds with a dash (-) did not activate the receptors in vitro at concentrations ≤ 300 µM)	– (compounds with a dash (-) did not activate the receptors in vitro at concentrations ≤ 300 µM)	0.766	– (compounds with a dash (-) did not activate the receptors in vitro at concentrations ≤ 300 µM)
